Reference: PMC9518245 (Journal of Enzyme Inhibition and Medicinal Chemistry, 2022)
Read-outs that look alike come from different tables or passages of the source.

Experiments:
Human recombinant sEH = target: T1, Human recombinant sEH (Homo sapiens, UniProt P34913); assay: sEH activity assay (PHOME fluorescence, cell-free); format: biochemical
T1 construct: made in house
T1 sequence (P34913 1-555): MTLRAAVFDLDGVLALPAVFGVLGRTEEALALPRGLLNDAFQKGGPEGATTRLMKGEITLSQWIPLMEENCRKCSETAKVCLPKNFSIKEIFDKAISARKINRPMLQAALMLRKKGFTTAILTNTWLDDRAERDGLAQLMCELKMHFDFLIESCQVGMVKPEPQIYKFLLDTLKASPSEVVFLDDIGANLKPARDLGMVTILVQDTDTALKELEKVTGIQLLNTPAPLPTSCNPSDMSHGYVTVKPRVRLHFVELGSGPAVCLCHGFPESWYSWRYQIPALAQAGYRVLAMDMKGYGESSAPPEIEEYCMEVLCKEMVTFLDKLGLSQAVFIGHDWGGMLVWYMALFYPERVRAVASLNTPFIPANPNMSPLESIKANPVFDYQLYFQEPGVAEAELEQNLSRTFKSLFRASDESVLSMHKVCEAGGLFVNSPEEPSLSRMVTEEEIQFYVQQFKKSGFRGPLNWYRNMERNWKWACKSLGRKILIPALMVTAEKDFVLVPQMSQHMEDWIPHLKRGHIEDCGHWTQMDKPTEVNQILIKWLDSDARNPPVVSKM
Protocol: Human recombinant sEH was expressed and purified as published.[23] Isolated sEH was diluted in 25 mM Tris buffer (pH 7) containing 0.1 mg/mL BSA to a final protein concentration of 0.5 µg/mL. Preincubation with test compounds or 0.1% vehicle (DMSO) at room temperature for 10 min was followed by stimulation with 50 µM PHOME at RT for 60 min. Reactions were stopped with 200 mM ZnSO4 and fluorescence was subsequently detected at λem 465 nm and λex 330 nm. If required, possible fluorescence of the compounds was subtracted from the read-out.

[1] = target: T2, FLAP (5-LOX product formation) (Homo sapiens, UniProt P20292); assay: FLAP-dependent 5-LOX product formation in human neutrophils; format: cell-based; conditions: for IC50: human neutrophils, A23187 stimulated, read-out: FLAP (5-LOX product formation) IC50 ± SEM
T2 construct: Human neutrophils were isolated from buffy coats of healthy adult fasted donors; endogenous in cells; host or cells: primary human neutrophils from buffy coats
T2 sequence (P20292 1-161): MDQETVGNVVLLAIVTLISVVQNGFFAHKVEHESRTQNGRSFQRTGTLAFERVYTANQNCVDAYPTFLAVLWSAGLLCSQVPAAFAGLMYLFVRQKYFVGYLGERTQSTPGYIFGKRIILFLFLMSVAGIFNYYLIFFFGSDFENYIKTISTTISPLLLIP
Protocol: Human neutrophils were isolated from buffy coats of healthy adult fasted donors as described recently.[32] […] 200 ng of internal PGB1 standard was added to the acidified samples and solid-phase-extraction using C18 RP-columns (100 mg, UCT, Bristol, PA, USA) was performed. Samples were eluted with methanol and 5-LOX products including 5-HpETE, and the corresponding alcohol 5-HETE, LTB4, and all-trans-isomers of LTB4 were analysed by RP-HPLC with a C-18 Radial-PAK column (Waters, Eschborn, Germany) as described.[33]

[2] = lead compound, stated without reference; cited from earlier work
[3] = design: method as in PMID 28218273, PMID 26882208, PMID 28839250; conditions: cited from earlier work
LT biosynthesis = conditions: cited from earlier work
[4] = target: T2, FLAP (5-LOX product formation); conditions: neutrophils; cited from earlier work
[5] = read-out: sEH IC50 ± SEM, human recombinant sEH, cell-free

## Cc1cc(OCc2nc3ccccc3n2C(=O)OC(C)(C)C)ccc1NC(=O)Nc1ccc(Cl)c(Cl)c1 [Compound 5a, tert-butyl-2-((4-(3-(3,4-dichlorophenyl)ureido)-3-methylphenoxy)methyl)-1H-benzo[d]imidazole-1-carboxylate]
Human recombinant sEH
  IC50: 0.7 ± 0.1 nM
[1]
  IC50: 3700 ± 900 nM
other
  melting point: 261 to 263 °C

## CC(C)(C)OC(=O)n1c(COc2ccc(NC(=O)Nc3ccc(Cl)c(Cl)c3)cc2)nc2ccccc21 [Compound 5b, tert-butyl 2-((4-(3-(3,4-dichlorophenyl)ureido)phenoxy)methyl)-1H-benzo[d]imidazole-1-carboxylate]
Human recombinant sEH
  IC50: 0.63 ± 0.1 nM
[1]
  IC50: > 10000 nM
other
  melting point: 262 to 264 °C

## Cc1cc(NC(=O)Nc2ccc(Cl)c(Cl)c2)ccc1OCc1nc2ccccc2n1C(=O)OC(C)(C)C [Compound 5c, tert-butyl-2-((4-(3-(3,4-dichlorophenyl)ureido)-2-methylphenoxy)methyl)-1H-benzo[d]imidazole-1-carboxylate]
Human recombinant sEH
  IC50: 0.7 ± 0.1 nM
[1]
  IC50: > 10000 nM
other
  melting point: 145 to 146 °C

## Cc1cc(OCc2nc3ccccc3n2C(=O)OC(C)(C)C)ccc1NC(=S)Nc1ccc(Cl)c(Cl)c1 [Compound 5d, tert-butyl 2-((4-(3-(3,4-dichlorophenyl)thioureido)-3-methylphenoxy)methyl)-1H-benzo[d]imidazole-1-carboxylate]
Human recombinant sEH
  sEH activity (in words): inactive
Human recombinant sEH; [5]
  IC50: > 10000 nM
[1]
  FLAP activity (in words): Inactive
  IC50: > 10000 nM
other
  melting point: 172 °C

## CC(C)(C)OC(=O)n1c(COc2ccc(NC(=S)Nc3ccc(Cl)c(Cl)c3)cc2)nc2ccccc21 [Compound 5e, tert-butyl 2-((4-(3-(3,4-dichlorophenyl)thioureido)phenoxy)methyl)-1H-benzo[d]imidazole-1-carboxylate]
Human recombinant sEH
  IC50: 19.1 ± 7.2 nM
[1]
  IC50: > 10000 nM
other
  melting point: 165 to 167 °C

## Cc1cc(NC(=S)Nc2ccc(Cl)c(Cl)c2)ccc1OCc1nc2ccccc2n1C(=O)OC(C)(C)C [Compound 5f, tert-butyl 2-((4–(3-(3,4-dichlorophenyl)thioureido)-2-methylphenoxy)methyl)-1H-benzo[d]imidazole-1-carboxylate]
Human recombinant sEH
  IC50: 17.5 ± 12.7 nM
[1]
  IC50: > 10000 nM
other
  melting point: 169 to 172 °C

## Cc1cc(OCc2nc3ccccc3[nH]2)ccc1NC(=O)Nc1ccc(Cl)c(Cl)c1 [Compound 6a, 1-(4-((1H-benzo[d]imidazol-2-yl)methoxy)-2-methylphenyl)-3-(3,4-dichlorophenyl)urea]
Human recombinant sEH; [5]
  IC50: 56.9 ± 19.4 nM
[1]
  IC50: 700 ± 100 nM
other
  melting point: 245 to 246 °C

## O=C(Nc1ccc(OCc2nc3ccccc3[nH]2)cc1)Nc1ccc(Cl)c(Cl)c1 [Compound 6b, 1-(4-((1H-benzo[d]imidazol-2-yl)methoxy)phenyl)-3-(3,4-dichlorophenyl)urea]
Human recombinant sEH
  IC50: 10.5 ± 1.9 nM
[1]
  IC50: 600 ± 100 nM
other
  melting point: 272 °C

## Cc1cc(NC(=O)Nc2ccc(Cl)c(Cl)c2)ccc1OCc1nc2ccccc2[nH]1 [Compound 6c, 1-(4-((1H-benzo[d]imidazol-2-yl)methoxy)-3-methylphenyl)-3-(3,4-dichlorophenyl)urea]
Human recombinant sEH
  IC50: 4.9 ± 1 nM
[1]
  IC50: 400 ± 10 nM
other
  melting point: 228 to 230 °C

## Cc1cc(OCc2nc3ccccc3[nH]2)ccc1NC(=S)Nc1ccc(Cl)c(Cl)c1 [Compound 6d, 1-(4-((1H-benzo[d]imidazol-2-yl)methoxy)-2-methylphenyl)-3-(3,4-dichlorophenyl)thiourea]
Human recombinant sEH
  IC50: 223 ± 85.8 nM
[1]
  IC50: 600 ± 100 nM
other
  melting point: 122 to 124 °C

## S=C(Nc1ccc(OCc2nc3ccccc3[nH]2)cc1)Nc1ccc(Cl)c(Cl)c1 [Compound 6e, 1-(4-((1H-benzo[d]imidazol-2-yl)methoxy)phenyl)-3-(3,4-dichlorophenyl)thiourea]
Human recombinant sEH
  IC50: 271 ± 58.4 nM
[1]
  IC50: 500 ± 100 nM
other
  melting point: 160 to 162 °C

## Cc1cc(NC(=S)Nc2ccc(Cl)c(Cl)c2)ccc1OCc1nc2ccccc2[nH]1 [Compound 6f, 1-(4-((1H-benzo[d]imidazol-2-yl)methoxy)-3-methylphenyl)-3-(3,4-dichlorophenyl)thiourea]
Human recombinant sEH
  IC50: 772 ± 169 nM
[1]
  IC50: 750 ± 170 nM
other
  melting point: 167 to 168 °C

## Cc1cc(OCc2nc3ccccc3s2)ccc1NC(=O)Nc1ccc(Cl)c(Cl)c1 [Diflapolin]
[2]
  solubility: poor solubility
[3]
  acute cytotoxicity: no acute cytotoxicity
LT biosynthesis
  LT biosynthesis in vivo: efficiently inhibits LT biosynthesis in vivo
LT biosynthesis; mouse
  anti-inflammatory activity in mouse: strong anti-inflammatory activity

## CC(C)c1ccc2c(c1)c(SC(C)(C)C)c(CC(C)(C)C(=O)O)n2Cc1ccc(Cl)cc1 [MK-886]
[4]
  IC50: 10 to 14 nM
